We go through two compounds from US20240117431A1, “STEM-CELL BASED BIOMARKER DISCOVERY” (THE REGENTS OF THE UNIVERSITY OF CALIFORNIA, priority 2020, published 2024).

Experiment [1] has as its system mutants TgUPRT. Put plainly: Phosphoribosyltransferase activity with recombinant TgUPRT mutants. It is filed as biochemical, Toxoplasma gondii. The note with it: five recombinant TgUPRT mutants, FIG. 9A. The protocol:
Enzyme activity assay: The standard activity assay was performed by incubating 10 μL of free extract or 0.5 μg of pure His-tag enzyme with 1 mM Phosphoribosyl pyrophosphate (PRPP), 1 mM uracil, 5 mM MgCl2 in 50 mM PBS buffer pH 7.4 in a final volume of 80 μL. The reaction mixture was incubated at 37° C. for 2-5 min (300 rpm). Enzyme was inactivated by adding 80 μL of cold methanol in ice-bath and heating for 5 min at 100° C. After centrifugation at 9000×g for 5 min, samples were half-diluted with water and the NMP production was analysed by HPLC to quantitatively measure the reaction products as described below in the analytical methods. All determinations were carried out in triplicate assuming Michaelis-Menten conditions, and the maximum error was below 5%. In such conditions, one international activity unit (IU) was defined as the amount of enzyme producing 1 μmol/min of UMP under the assay conditions.
Substrate specificity studies Enzymatic synthesis of the different pyrimidine nucleoside monophosphate (NMP) derivatives was carried out by incubating 0.5 μg of pure His-tag enzyme with 1 mM PRPP, 1 mM pyrimidine base and 5 mM MgCl2 in 50 mM PBS buffer pH 7.4 (1.6-3.2% v/v DSMO). The experiments were performed according to the standard assay. Subsequently, the reaction mixture was processed as described above and the NMP production was analyzed by HPLC.
Analytical methods: The production of NMPs was quantitatively measured with an ACE EXCEL 5 μm CN-ES 250×4.6 mm equilibrated with 100% trimethyl ammonium acetate at a flow rate of 0.8 mL/min. Retention times for the reference bases and NMPs (hereafter abbreviated according to the recommendations of the IUPAC-IUB Commission on Biochemical Nomenclature) were as follows: uracil (Ura), 4.7 min; 5-azido uracil (5-AUra). […]
Following these exciting observations, a more quantitative approach to examined for differences between enzyme mutants and their enzyme kinetics with the analogs. […] Each purified enzyme was incubated with the different substrates and phosphoribosyltransferase activity was measured (FIG. 9A).

The subject of experiment [2] is GFP-3×MT-TgUPRT HEK293T cells co-cultured with mCherry cells. Put plainly: Co-culture RT-qPCR enrichment of GFP transcript over mCherry. It is filed as cell-based. The method, then:
FIGS. 10A, 10B, 100, 10D, 10E show characterizing the stringency of the 2 (5VU)-mutant TgUPRT pair. […] Cells were transfected with TgUPRT variants and incubated with 2 at 1 mM final concentration for 24h. 2 incorporation was imaged using two-step labeling (1) IEDDA using tetrazene-biotin then followed by Alexa488-streptavidin. […] Streptavidin-HRP (Strep-HRP) was used for assessment of biotin level resulting from clicked RNA, and methylene blue (MeBI) staining served as loading control. […] Cells were treated the same as in panel 10B and the RNA appended with biotin and enriched before RT RT-qPCR.
Co-culture of HEK cells containing GFP or mCherry expression plasmids: HEK293 (5×105) cells seeded in 6-well plate. Thirty-six hour post seeding, HEK cells were transfected with 1 μg of single plasmid containing EGFP, mCherry, EGFP-TgUPRT-WT, or EGFP-TgUPRT-Mut. Twenty-four hour post transfection, transiently transfected HEK cells were trypsinized and seeded into a 5 cm plate. Equal amounts of cells (approximately 2×106 in total) where 1×10^6 cells containing GFP or GFP-TgUPRT plasmids and 1×10^6 cells containing mCherry construct) were co-cultured. Three co-culture conditions are Condition (A): mCherry and EGFP, Condition (B): mCherry and EGFP-WT-TgUPRT, and Condition (C): mCherry and EGFP-3×MT-TgUPRT (pKN-CMV-EGFP-TgUPRT-Mut16 or -Mut17). […]

For `C#Cc1c[nH]c(=O)[nH]c1=O` [compound 1, 5-ethynylpyrimidine-2,4(1H,3H)-dione], in experiment [1], the “reactivity with the mutants (phosphoribosyltransferase activity)” value came out at 10 IU/mg. Also, the “enrichment of GFP transcript in -UPRT cells” value in experiment [2] (co-culture, RT-qPCR) is reported as “Background enrichment”.
As for `C=Cc1c[nH]c(=O)[nH]c1=O` [compound 2, 5-Vinylpyrimidine-2,4(1H,3H)-dione], the “reactivity with the mutants (phosphoribosyltransferase activity)” value in experiment [1] is reported as “increased dramatically”. In experiment [2] ({}), the “enrichment of GFP transcript, triple mutant cells compared to no UPRT cells” value is on record as about 100 fold.
